Laboratory results reported in patent US20150329537A2, “CDK9 INHIBITORS IN THE TREATMENT OF MIDLINE CARCINOMA” (LEADDISCOVERY CENTER GMBH, priority 2011, published 2015).

What was measured:
[1] = test system: Brd4-Nut mutated cell lines (HCC2429, TY-82, 690100, 143100); assay: Proliferation assay on Brd4-Nut mutated versus wild type cell lines; type: cell-based; conditions: mutated: HCC2429, TY-82, 690100, 143100; wild type: Hela, HCC366, H460, HCC1143, hPBMCs; FIG. 4
Description: The proliferation results are presented as IC50 in μM. First, the anti-proliferative effect of CDK9 inhibitors is much more pronounced on BrdNut mutated cell lines (=sensitive cell lines).
Cell lines were maintained in RPMI 1640 cell culture medium+glutamine (PAN Biotech GmbH, Aidenbach, Germany; order no. P04-22100; P04-05500) supplemented with 10% fetal calf serum “Gold” (PAA Laboratories GmbH, Pasching, Austria; order no. A15-151) and grown in a humidified atmosphere at 37° C., 5% C02. As a first step, an optimal cell density for each cell line was determined to guarantee linearity. For viability assays with compounds, cells were then seeded at a density of 200 to 1000 per well in 25 μl in 384-well plates (Greiner Bio-One, Frickenhausen, Germany; order no. 781080). After overnight incubation at 37° C./5% CO2, 25 nl or 75 nl compounds were added to each sample well by using BIOMEK FX^P Laboratory Automation Workstation (Beckman Coulter, USA). Wells with cells and 0.1% or 0.3% DMSO in culture medium were used as positive controls, wells with cells and 10 μM staurosporine (Selleck Chemicals, Huston, USA) in culture medium were used as negative controls. […] Luminescence was measured by Envision Plate Reader (Perkin Elmer, USA). […]

HCC2429 cells = assay: Proliferation / cell viability assay (Cell Titer Glo); type: cell-based; conditions: FIG. 1; for effect on proliferation of HCC2429 cells (in words): dose response experiments
Description: Proliferation assays were performed as described below under materials and methods. […] (Cpd B1 and Ro-3306) were applied at concentrations between 30 and 0.0137 μM. After 72 h incubation with compounds ATP content/proliferation was determined employing CTG (Promega). Relative proliferation values (compared to vehicle control) were used to calculate IC50 values (Excel fit; algorithm #205). IC50s of the respective compound (Y-axis; logarithmic scale) on proliferation of various cell lines (X-axis) are depicted in black bars. White bars indicate that an IC50 could not be determined due to too low activity and therefore was higher than the highest applied concentration in the assays (30 μM). IC50s of compounds on CDK9 inhibitor sensitive cell line HCC2429 are presented in grey bars.
Cell lines were maintained in RPMI 1640 cell culture medium+glutamine (PAN Biotech GmbH, Aidenbach, Germany; order no. P04-22100; P04-05500) supplemented with 10% fetal calf serum “Gold” (PAA Laboratories GmbH, Pasching, Austria; order no. A15-151) and grown in a humidified atmosphere at 37° C., 5% C02. As a first step, an optimal cell density for each cell line was determined to guarantee linearity. For viability assays with compounds, cells were then seeded at a density of 200 to 1000 per well in 25 μl in 384-well plates (Greiner Bio-One, Frickenhausen, Germany; order no. 781080). After overnight incubation at 37° C./5% CO2, 25 nl or 75 nl compounds were added to each sample well by using BIOMEK FX^P Laboratory Automation Workstation (Beckman Coulter, USA). Wells with cells and 0.1% or 0.3% DMSO in culture medium were used as positive controls, wells with cells and 10 μM staurosporine (Selleck Chemicals, Huston, USA) in culture medium were used as negative controls. Upon incubation with compounds for 72 h at 37° C./5% CO2 25 μl Cell Titer Glo reagent (Promega, Madison, USA, order no. G7573; 1:2 diluted with cell culture medium) was added to each well to determine cell viability. […] Luminescence was measured by Envision Plate Reader (Perkin Elmer, USA). […]

CDK9/CycT = target: T1, CDK9/CycT (Homo sapiens, UniProt P50750); assay: Radiometric protein kinase assay (33PanQinase Activity Assay); type: biochemical; conditions: 10 μM compound, compared to vehicle control, 23 different kinases, FIG. 3
T1 construct: purchased ProQinase
Description: A similar experimental procedure is performed when the resulting activity within ^33PanQinase® assay is done. In advance buffers are prepared but in this case the pipetting sequence is first ATP solution diluted with assay buffer, DMSO or compound solution. The reaction (1 h at 30° C.) is started by addition of a substrate-kinase mix. During the incubation the kinase phosphorylates the substrate (different for each kinase). Due to the fact that the ATP solution contains ^33P labelled ATP the substrate proteins are labeled with ^33P. The reaction is stopped by addition of excess H3PO4. If the reaction is performed in plates binding substrate proteins, said plates are washed to reduce unspecific signals (mainly not used ATP). The incorporation of ^33P into substarte proteins is a direct measure of activity of the respective kinase. Therefore, the incorporated radioactivity is detected by scintillation counting. Data is evaluated, processed and analyzed as described for the LANCE assays.
A radiometric protein kinase assay (33PanQinase® Activity Assay) was used for measuring the kinase activity of the […] protein kinases. […]
The reaction cocktails were incubated at 30° C. for 60 minutes. […] Incorporation of 33Pi (counting of “cpm”) was determined with a microplate scintillation counter (Microbeta, Wallac).

T1 sequence (P50750 whole entry): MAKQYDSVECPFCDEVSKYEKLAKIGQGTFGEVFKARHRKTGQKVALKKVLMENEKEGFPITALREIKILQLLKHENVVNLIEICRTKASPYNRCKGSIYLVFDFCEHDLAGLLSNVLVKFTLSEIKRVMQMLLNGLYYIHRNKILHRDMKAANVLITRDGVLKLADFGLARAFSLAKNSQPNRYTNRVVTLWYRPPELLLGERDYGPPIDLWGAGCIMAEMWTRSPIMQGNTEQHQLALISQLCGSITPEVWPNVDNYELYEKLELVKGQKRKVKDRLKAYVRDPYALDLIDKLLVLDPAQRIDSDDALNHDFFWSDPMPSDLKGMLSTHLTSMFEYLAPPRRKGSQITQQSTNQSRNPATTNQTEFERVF
T1 sequence (O60563 whole entry partner): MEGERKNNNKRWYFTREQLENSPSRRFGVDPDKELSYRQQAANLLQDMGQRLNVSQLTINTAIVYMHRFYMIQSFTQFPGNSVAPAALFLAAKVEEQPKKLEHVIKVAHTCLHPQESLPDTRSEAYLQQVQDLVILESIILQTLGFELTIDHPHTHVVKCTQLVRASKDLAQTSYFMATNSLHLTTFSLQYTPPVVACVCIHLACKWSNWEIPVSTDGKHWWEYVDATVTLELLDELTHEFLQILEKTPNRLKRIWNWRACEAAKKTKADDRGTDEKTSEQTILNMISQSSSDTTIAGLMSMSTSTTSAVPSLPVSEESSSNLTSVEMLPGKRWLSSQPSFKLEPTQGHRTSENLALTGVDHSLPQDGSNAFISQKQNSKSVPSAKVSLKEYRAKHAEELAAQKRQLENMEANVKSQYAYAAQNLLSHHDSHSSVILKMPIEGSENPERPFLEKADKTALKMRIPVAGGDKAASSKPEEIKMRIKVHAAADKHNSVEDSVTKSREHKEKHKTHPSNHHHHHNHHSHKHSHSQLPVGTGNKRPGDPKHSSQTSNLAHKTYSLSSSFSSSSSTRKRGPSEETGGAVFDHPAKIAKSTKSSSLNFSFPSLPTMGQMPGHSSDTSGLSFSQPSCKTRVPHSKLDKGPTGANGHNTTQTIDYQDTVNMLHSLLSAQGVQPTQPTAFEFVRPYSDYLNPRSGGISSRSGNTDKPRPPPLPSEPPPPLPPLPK

Row | Compound | proliferation inhibition in mutated, sensitive cell lines compared with wild type cell lines (in words) [1] | effect on proliferation of HCC2429 cells (in words) (HCC2429 cells) | inhibition of CDK9 kinase activity, residual activity (in words) (CDK9/CycT) | IC50 (HCC2429 cells; 72 h incubation, ATP content/proliferation by CTG, 30 to 0.0137 μM) [µM]
1 | COc1ccccc1-c1cc(Nc2cccc(CS(N)(=O)=O)c2)ncn1 [1073485-20-7P, 3-[[6-(2-methoxyphenyl)-4-pyrimidinyl]amino]-Benzenemethanesulfonamide] | much more potent in mutated, sensitive cell lines |  |  | 
2 | COc1ccccc1-c1ncnc(Nc2cccc(CS(N)(=O)=O)c2)n1 [Cpd B1, 3-[(4-(2-Methoxyphenyl)-1,3,5-triazin-2-yl)amino] benzenemethanesulfonamide] |  | potently affected proliferation of HCC2429 cells | inhibits only CDK9 with high potency | 
3 | O=C1NC(=NCc2cccs2)S/C1=C\c1ccc2ncccc2c1 [Ro-3306] |  | did not show comparable effects |  | > 10
